Paper PMC9785863, “Thioether and Ether Furofuran Lignans: Semisynthesis, Reaction Mechanism, and Inhibitory Effect against α-Glucosidase and Free Radicals” (Molecules, 2022)

molecular target: T1, rat intestinal maltase; assay: maltose hydrolysis, glucose assay kit, Lineweaver-Burk with secondary replots; format: biochemical; details: mixed inhibition; maltose 0.5-8 mM; pH 6.9, 37 °C
T1 construct: gene Mgam; native, crude extract of rat intestinal acetone powder (Sigma), not purified; maltose-hydrolysing activity, shared by maltase-glucoamylase and sucrase-isomaltase
Description: maltose hydrolysis, glucose assay kit, Lineweaver-Burk with secondary replots on rat intestinal maltase

Ki	Compound
0.03 mM	CC(C)(C)c1cc(SC2OCC3C(c4ccc5c(c4)OCO5)OCC23)cc(C(C)(C)C)c1O (stereo not drawn) [2α-7o]

molecular target: T1, rat intestinal maltase; assay: maltose hydrolysis, glucose assay kit, absorbance at […] nm; format: biochemical; details: maltose (2 mM stock), 0.1 M phosphate pH 6.9, 37 °C, 10 min; read-out: α-Glucosidase Inhibitory Effect (IC50, mM) ^a / Maltase

IC50	Compound
> 30 mM	c1cc2c(cc1[C@H]1OC[C@H]3[C@@H]1CO[C@@H]3SC1CCCCC1)OCO2 [2α-7c]
14.2 ± 0.8 mM	Oc1ccc(S[C@@H]2OC[C@H]3[C@@H]2CO[C@@H]3c2ccc3c(c2)OCO3)cc1 [2β-7f]
> 30 mM	CCCCCCCCO[C@H]1OC[C@H]2[C@@H]1CO[C@@H]2c1ccc2c(c1)OCO2 [2α-9b]
> 30 mM	OCCCCCCS[C@H]1OC[C@H]2[C@@H]1CO[C@@H]2c1ccc2c(c1)OCO2 [2α-7b]
14.7 ± 1 mM	Oc1ccc(S[C@H]2OC[C@H]3[C@@H]2CO[C@@H]3c2ccc3c(c2)OCO3)cc1 [2α-7f]
1.4 ± 0.2 mM	C[C@H]1O[C@H](O[C@H]2[C@H](O)[C@@H](O)[C@@H](O[C@H]3[C@H](O)[C@@H](O)C(O)O[C@@H]3CO)O[C@@H]2CO)[C@H](O)[C@@H](O)[C@@H]1N[C@H]1C=C(CO)[C@@H](O)[C@H](O)[C@H]1O (stereo partly drawn) [acarbose, reference compound]
> 30 mM	CCCCCCCCS[C@H]1OC[C@H]2[C@@H]1CO[C@@H]2c1ccc2c(c1)OCO2 [2α-7a]
11.8 ± 0.3 mM	CC(C)(C)c1cc(SC2OCC3C(c4ccc5c(c4)OCO5)OCC23)cc(C(C)(C)C)c1O (stereo not drawn) [2α-7o]
